# Test results reported in patent publication US20020077289A1, “Angiostatin and endostatin binding proteins and methods of use” (priority 2000, published 2002).
# Read-outs that look alike come from different tables or passages of the source. Bridges are numbered along the chain shown (N, C = ends). Where no end group is shown, it is not given here.
# T1: recombinant human Endostatin protein (Homo sapiens, UniProt P39060)
# T1 construct: recombinant human Angiostatin protein, K1-4 protein, or recombinant human Endostatin protein were coated overnight; made in house; host or cells: Pichia pastoris
# T1 sequence (P39060 1572-1754 limits assumed): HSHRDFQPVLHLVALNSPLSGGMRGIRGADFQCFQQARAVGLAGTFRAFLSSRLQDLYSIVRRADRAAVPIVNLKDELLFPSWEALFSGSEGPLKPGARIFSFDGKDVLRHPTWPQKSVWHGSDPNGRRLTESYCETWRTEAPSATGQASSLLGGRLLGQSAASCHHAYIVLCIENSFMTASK
# B1: recombinant human Endostatin protein (protein)
# chain: T1 sequence (P39060 1572-1754 limits assumed)
# modifications: Alexa Fluor 488 label in some experiments
# How the values were obtained:
# B16-BL6 melanoma cells = test: B16-BL6 experimental metastasis assay; format: in vivo, C57BL/6J mice
# Description: C57BL/6J mice were injected via the tail vein with 5×10^4 B16-BL6 melanoma cells on day 0. On day 3, groups of five mice received daily subcutaneous doses of either buffer control, 1.5 nmol (1.5 mg/kg/day) of rhEndostatin in combination with 0, 15, 75 or 375 nmol of control or E37 peptide, or control or E37 peptide alone for eleven days. All mice were sacrificed on day 14, and the number of pulmonary surface metastases in each animal counted. Error bars indicate standard deviation of the mean.
# C57BL/6J mice (n=8) were injected intravenously (i.v.) with 5×10^4 B16-BL6 cells/mouse. Three days later treatment commenced. 100 μl of citrate-phosphate buffer (66 mM Sodium Phosphate, 17 mM Citric acid, 59 mM NaCl pH 6.2) containing 1.5 nmol of rhEndostatin and 100 μl of PBS containing either 0, 15, 75 or 375 nmol of control or E37 peptide were mixed and injected subcutaneously (s.c.) daily for 11 days. All mice were then sacrificed, their lungs removed and the number of surface metastases counted. Results were analyzed for statistical significance using the 2-tailed Student's t-test.
# The following experiment was conducted to determine the interaction of E37 peptide and Endostatin protein. Briefly, the B16BL6 experimental metastasis assay, as known to those of skill in the art and further described in International Patent Application number PCT/US99/11418, was performed as follows. 5×10^4 B16-BL6 cells in 200 μl of PBS were injected into C57BL/6J mice via the tail vein. Three days post injection treatment was started. The injection received by eight groups of mice were: 1) citrate phosphate/PBS buffer, 2) ^30 μg Endostatin protein (in 100 μl PBS), 3) 30 μg Endostatin protein (in 200 μl PBS), 4) 30 μg Endostatin protein plus 50 times molar excess of control peptide (in 200 μl PBS), 5) 30 μg Endostatin protein plus 250 times molar excess of control peptide (in 200 μl PBS), 6) 30 μg Endostatin protein plus 10 times molar excess of E37 peptide (in 200 μl PBS), 7) 30 μg Endostatin protein plus 50 times molar excess of E37 peptide (in 200 μl PBS), and 8) 30 μg Endostatin protein plus 250 times molar excess of E37 peptide (in 200 μl PBS). Doses were administered daily for eleven days posterior to the thoracic cavity subcutaneously. All mice were sacrificed, the lungs removed and the number of surface metastases in each animal were counted under a stereo microscope.
# HUVEC microfilaments = test: Fluorescent staining of formalin fixed endothelial cells with Alexa 488-labeled rhEndostatin; format: cell-based, human; settings: 50-fold molar excess (100 μM) of peptide; 40 μg/ml (2 μM) Alexa-rhEndostatin
# Description: (A), HUVECs, (B), HAECs and (C), HMVECs were incubated in the presence of 40 micrograms per milliliter (μg/ml) Alexa 488-labeled rhEndostatin and photographed at 100× magnification under Alexa 488 (green) excitation wavelength. (D) and (E), HUVECs were incubated simultaneously in anti-tropomyosin TM311 ascites fluid and 40 micrograms per milliliter (μg/ml) Alexa 488-labeled rhEndostatin followed by incubation in Alexa 594 conjugated goat anti-mouse IgG (H+L). The same field was photographed under Alexa 488 (green) and Alexa 594 (red) excitation wavelengths at 100× magnification.
# HUVECs were incubated in the presence of 40 micrograms per milliliter (μg/ml) Alexa 488-labeled rhEndostatin alone (A), or in the presence of a 50-fold molar excess of control peptide (B), or E37 peptide (C). Cells were photographed using the same exposure times at 100x magnification under Alexa 488 (green) excitation wavelength.
# To detect the binding of Alexa-labeled rhEndostatin 1×10^4 HUVEC, HMVEC and HAECs were plated on 1.5% gelatin coated Nalge Nunc Lab Tek II chamber slides (Naperville, Ill.) and fixed in 10% neutral buffered formalin followed by a methanol wash. The chamber slides were incubated in PBS/1% calf serum containing 40 μg/ml (2 μM) of Alexa 488-labeled rhEndostatin (Narum et al., manuscript in preparation) for 1 hr at room temperature. The slides were washed in PBS, coverslips mounted using fluorescent mounting media (Kirkegaard and Perry Laboratories, Gaithersburg, Md.) and cells photographed under Alexa 488 excitation wavelength. Co-localization studies were performed as above except cells were incubated in PBS/1% calf serum containing 1:200 mouse anti-tropomyosin TM311 (Sigma, St. Louis, Miss.) and 40 μg/ml of Alexa 488-labeled rhEndostatin followed by incubation with goat anti-mouse IgG (H+L) conjugated to Alexa 594 (Molecular Probes, Eugene, Oregon). The same fields were photographed under Alexa 488 and Alexa 594 wavelengths. […]
# [1] = molecular target: T1, recombinant human Endostatin protein; test: Phage display panning on Endostatin protein; format: binding
# Text: The Ph.D.-C7C, a disulfide constrained 7-mer phage-display library (New England BioLabs, Beverly, Mass.), was screened as recommended by the manufacturer. Following a third round of amplification individual phage were isolated and the peptide sequences deduced by DNA sequencing.
# (§1) The Ph.D.-7 phage display library (New England BioLabs Cat #8100), a combinatorial library consisting of random peptide 7-mers, was screened for 7 amino acid binding peptides. The Ph.D.-7 phage display library consists of linear 7-mer peptides fused to the pIII coat protein of M13 via a Gly-Gly-Gly-Ser flexible linker. The library contains 2.8×10^9 independent clones. The Ph.D. library is useful for identifying targets requiring binding elements concentrated in a short stretch of amino acids.
# The Ph.D.-C7C library (New England BioLabs Cat # 8120) is a combinatorial library consisting of random peptide 7-mers flanked by cysteine residues that under non-denaturing conditions are disulfide bonded resulting in the display of cyclized peptides. In non-reducing conditions, the cysteines form a disulfide bond resulting in each peptide being constrained in a disulfide loop. The library contains 3.7×10^9 independent clones that, like the Ph.D.-7 library, result in peptides fused to the pIII coat protein of M13 via a Gly-Gly-Gly-Ser flexible linker. […]
# [2] = tested on: recombinant human Angiostatin protein; test: Phage display panning on Angiostatin protein; format: binding
# recombinant human Angiostatin protein, sequence (P00747 103-352 limits assumed): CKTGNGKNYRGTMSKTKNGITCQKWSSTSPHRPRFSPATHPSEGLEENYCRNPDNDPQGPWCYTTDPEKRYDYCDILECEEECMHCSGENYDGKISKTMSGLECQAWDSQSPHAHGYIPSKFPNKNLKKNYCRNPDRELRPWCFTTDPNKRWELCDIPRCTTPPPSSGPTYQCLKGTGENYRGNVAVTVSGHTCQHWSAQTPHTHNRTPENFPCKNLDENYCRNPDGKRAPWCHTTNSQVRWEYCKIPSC
# Text: as §1
# The Ph.D.-C7C library (New England BioLabs Cat # 8120) is a combinatorial library consisting of random peptide 7-mers flanked by cysteine residues that under non-denaturing conditions are disulfide bonded resulting in the display of cyclized peptides. In non-reducing conditions, the cysteines form a disulfide bond resulting in each peptide being constrained in a disulfide loop. The library contains 3.7×10^9 independent clones that, like the Ph.D.-7 library, result in peptides fused to the pIII coat protein of M13 via a Gly-Gly-Gly-Ser flexible linker. Constrained libraries are useful in the identification of structural epitopes. The Ph.D.-C7C library was screened for the binding of 7 amino acid cyclized binding peptides.
# The phage display libraries were screened following the manufacturers' recommendations. […]
# [3] = molecular target: recombinant human tropomyosin isoform 3 (human); test: SPR (BIAcore 3000), rhTM3 immobilized, steady state model
molecule,measurement,setting,value
CTHWWHKRCGGGS (disulfide 1-9 (inferred)) [E37 peptide],decrease in the anti-tumor activity of rhEndostatin,B16-BL6 melanoma cells; co-injection of 1.5 nmol rhEndostatin with 15 nmol E37 peptide,11%
same,decrease in the anti-tumor activity of rhEndostatin,B16-BL6 melanoma cells; co-injection of 1.5 nmol rhEndostatin with 75 nmol E37 peptide,30.5%
same,decrease in the anti-tumor activity of rhEndostatin,B16-BL6 melanoma cells; co-injection of 1.5 nmol rhEndostatin with 375 nmol E37 peptide,84.5%
same,number of metastatic lesions on the lungs versus control group,B16-BL6 melanoma cells; up to 375 nmol/day E37 peptide in the absence of rhEndostatin,not statistically different from that of the control group
same,inhibition of binding of Alexa-labeled rhEndostatin to HUVEC microfilaments,HUVEC microfilaments,inhibited the binding of rhEndostatin to HUVEC microfilaments
same,binding to Endostatin protein (phage display selection),[1],binds
same,binding to Endostatin protein (phage display selection),[1]; listed as E37,found to bind rhEndostatin
H A I Y P R H G G G S (HAIYPRHGGGS) [Peptide A10],binding to Angiostatin protein (phage display selection),[2],binds
B1,Kd,[3],100 µM
